The record followed here is patent publication US20210122746A1, “FEBRIFUGINE DERIVATIVES” (BRISTOL-MYERS SQUIBB COMPANY, priority 2017, published 2021).

The test system of one series is Rat hepatocytes. The series is described as follows: GSH trapping assay. It is filed as in vitro ADME. Conditions: 30 μM, 24 hr incubation, LC-MS detection of GSH adducts. On the procedure: Rat hepatocytes were isolated from male Sprague-Dawley rats (Vivo Biotech Ltd, HYD, India), weighing 230 to 280 g by the two step collagenase perfusion method (seglen, 1976; Berry M N and Friend D S.1969). Rat hepatocytes were cultured in Dulbecco's Modified Eagle's Medium (DMEM, Gibco®, USA) supplemented with 10^−6M dexamethasone (Gibco®), 5% fetal bovine serum (Gibco®) and cocktail-A mix (CM3000, Gibco®) containing HEPES buffer (PH 7.4), GlutaMAX™, human recombinant insulin, penicillin and streptomycin. Initial cell viability assessed by Trypanblue stain 0.4% (Sigma, UK) and viability more than 80% were considered for culturing. Hepatocytes were seeded in 96 well type-I collagen coated plates (Gibco®) at 4×10^4 cells/well in 100 μL of the culture medium and incubated at 37° C. in 5% CO2 and 95% relative humidity (RH) for 4 hr of cell attachment.
After 4hr incubation, rat hepatocytes were washed twice with pre-warmed (37° C.) DMEM incubation medium supplemented with 10^−7M dexamethasone and cell maintenance cocktail-B (CM4000, Gibco®) solution to remove unattached cells. Post washing hepatocytes were treated with test and reference compounds in incubation medium at single concentration (30 μM) in duplicate and incubate further for 24 hr at 37° C. with 5% CO2 and 95% RH. The final concentration of DMSO in medium was 0.5%.
Post 24 hr incubation, hepatocyte samples were quenched with equal volumes of acetonitrile containing 0.1% formic acid followed by vortex mix, sonicate and centrifuge at 12000 rpm at room temperature for 5 min. Supernatant samples were analyzed for GSH adducts on a C18 reverse-phase column (Xbridge™ Shield, C18, 4.6×150 mm, 3.5 μm) with solvent A (10 mM ammonium formate and 0.1% formic acid/water) and solvent B (0.1% formic acid/acetonitrile).
The column was eluted with 5% B for 5 min and then with a linear gradient to 20% B over 10 min and it was maintained upto 15 min, then it was increased linearly to 40% B upto 27 min and then increase to 90% B upto 29 min, and then equilibrate back the column to 5% B upto 33 min at a flow rate of 0.6 ml/min. The column effluent was directed into the ESI source of a LTQ Velos Orbitrap mass spectrometer (Thermo Fisher Scientific, San Jose, Calif.). The ESI conditions were as follows: sheath gas flow rate, 40 arbitrary units; auxiliary gas, 30 arbitrary units; spray voltage, 4.5 kV; capillary temperature, 230° C.; capillary voltage, 30 V; and tube lens offset, 25 V. Data were acquired in positive ion mode using Xcalibur software (Thermo Fisher Scientific) with one full scan followed by two data-dependent scans of the most intense and the second most intense ions. During the data interpretation the characteristic fragments of neutral loss of glycine (75.0320 Da), pyroglutamic acid (129.0426 Da) and loss of neutral moiety GSH (307.0838 Da) and/or a specific fragment of (GSH+H)^+ (m/z 308.0911) were monitored. Finally, the fragments ions with m/z e.g. 179.0485, 177.0328 and 162.0219 Da, which were derived from the glutathione moiety were used to report GSH positive results.

Series [1] concerns the target T1, human ProRS (prolyl tRNA synthetase moiety of glutamyl prolyl tRNA synthetase) (Homo sapiens, UniProt P07814).
T1 construct: The prolyl tRNA synthetase moiety (ProRS) in the cDNA of glutamyl prolyl tRNA synthetase was subcloned; 6xHis (N, cleaved yes); made in house; host or cells: E. coli BL21 (DE3)
T1 sequence (P07814 1007-1512 limits assumed): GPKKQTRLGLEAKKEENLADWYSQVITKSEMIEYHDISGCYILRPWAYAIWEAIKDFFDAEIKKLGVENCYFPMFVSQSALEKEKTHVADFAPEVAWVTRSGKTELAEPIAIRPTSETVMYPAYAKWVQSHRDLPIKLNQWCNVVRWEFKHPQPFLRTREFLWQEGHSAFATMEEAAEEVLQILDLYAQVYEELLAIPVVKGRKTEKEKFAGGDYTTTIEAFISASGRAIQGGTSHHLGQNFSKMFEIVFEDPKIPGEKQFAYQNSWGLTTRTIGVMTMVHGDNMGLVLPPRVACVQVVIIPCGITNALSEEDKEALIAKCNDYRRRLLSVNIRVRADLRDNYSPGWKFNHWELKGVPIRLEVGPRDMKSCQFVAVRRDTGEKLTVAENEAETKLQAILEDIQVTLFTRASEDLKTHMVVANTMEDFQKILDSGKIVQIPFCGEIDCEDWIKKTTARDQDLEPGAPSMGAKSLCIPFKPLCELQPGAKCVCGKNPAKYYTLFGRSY
The series is described as follows: Assay for inhibitors of prolyl tRNA synthetase activity (ProRS assay, labeled proline incorporation). It is filed as biochemical. Conditions: ProRS 20 nM, compounds 10 μM to 0.5 nM, 10 min at 37° C.; read-out: EPR IC50. An excerpt: In order to establish the activities of the compounds highlighted above, we determined extent of inhibition of prolyl tRNA synthetase activity in dose response curves to obtain IC50 values.
The prolyl tRNA synthetase moiety (ProRS) in the cDNA of glutamyl prolyl tRNA synthetase was subcloned, tagged with a single biotin, purified and used in the assay. Briefly, human ProRS with a 6× N-terminal His tag in pET28N with TVMV BioP was transformed in E. coli BL21 (DE3) cells, selected, overexpressed and purified using a Ni Seph 6 FF XK 16/20 column in the first stage. Ni-NTA eluates were pooled and treated with TVMV protease, and biotinylated using d-Biotin, MgCl2, ATP and the BirA enzyme. This was rerun through a Ni column as before. The eluates were further enriched and purified using membrane ultrafiltration and a SuperDex 200 XK 16/60 column, and peak fractions were confirmed by SDS-PAGE prior to protein amount determination, aliquoting and storage at −80° C.
ProRS assay was performed in 96 well plates in a final reaction volume of 20 μl, using staggered additions of Tris-Cl (pH 7.5, 60 mM), dithiothreitol (2 mM), ATP (5 mM, pH 7.0), MgCl2 6 mM), ProRS (20 nM, with pre-determined active fraction range) and bovine tRNA (20 μg). Controls and compounds, at various concentrations (10 μM to 0.5 nM), were incubated on ice with enzyme mix for 15 min followed by addition of proline (non-labeled and labeled, 3.96 and 1.04 μM (1 μCi) respectively) to initiate the reaction. Reaction was carried out for 10 min at 37° C. and terminated by addition of TCA (10%, 100 μl). Reaction mix was collected on a Whatman GF/B filter using a vacuum filtration manifold. This filter was washed 3 times with 5% TCA followed by 2 washes with ethanol, air dried, and read using a liquid scintillation counter (TopCount NXT) using MicroScint O. IC50 values were calculated and analyzed using ToolSet (4-parameter plot) and depicted herein.

SMILES strings stand for the structures.

A word on the IC50: it is the concentration that gives 50% inhibition.

Take `Cc1cc(C)c2ncn(CC(=O)C[C@@H]3CCCCN3)c(=O)c2n1.Cl.Cl` [Example 10, (S)-6,8-dimethyl-3-(2-oxo-3-(piperidin-2-yl)propyl)pyrido[3,2-d]pyrimidin-4(3H)-one dihydrochloride]: the GSH adduct formation entry in the series on Rat hepatocytes is “Negative”. Further, in series [1], the IC50 turned out to be 773 nM.
